Read-outs that look alike come from different tables or passages of the source.
How the values were obtained:
Type in all cases: cell-based
hASCT2 [1] = molecular target: T1, hASCT2 (Homo sapiens, UniProt Q15758); experiment: Competition experiment with alanine, hASCT2; conditions: first entry of the cell; for Ki: read-out: Competition Expt (h/rASCT2 Ki): hASCT2 Ki
T1 construct: expressed in transfected cells; host or cells: HEK293 (ATCC CRL-11268), transient transfection
T1 sequence (Q15758 1-541): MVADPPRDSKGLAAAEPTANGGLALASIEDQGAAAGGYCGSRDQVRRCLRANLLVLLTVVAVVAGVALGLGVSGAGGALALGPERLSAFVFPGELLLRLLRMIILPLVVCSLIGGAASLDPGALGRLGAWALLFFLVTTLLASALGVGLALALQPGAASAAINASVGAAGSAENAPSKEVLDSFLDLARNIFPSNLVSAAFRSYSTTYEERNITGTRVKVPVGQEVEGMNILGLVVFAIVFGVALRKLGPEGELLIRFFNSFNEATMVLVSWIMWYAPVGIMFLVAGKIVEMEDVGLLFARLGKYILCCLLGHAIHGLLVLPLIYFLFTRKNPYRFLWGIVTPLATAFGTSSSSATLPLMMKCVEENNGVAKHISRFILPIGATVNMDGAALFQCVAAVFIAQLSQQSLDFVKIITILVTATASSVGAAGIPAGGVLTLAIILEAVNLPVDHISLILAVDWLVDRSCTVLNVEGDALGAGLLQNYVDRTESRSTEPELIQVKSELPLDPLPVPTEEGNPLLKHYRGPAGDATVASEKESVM

rASCT2 [2] = molecular target: T2, rASCT2 (Rattus norvegicus, UniProt D3ZJ25); experiment: Competition experiment with alanine, rASCT2; conditions: second entry of the cell; for Ki: read-out: Competition Expt (h/rASCT2 Ki): rASCT2 Ki
T2 construct: expressed in transfected cells; host or cells: HEK293 (ATCC CRL-11268), transient transfection
T2 sequence (D3ZJ25 1-555): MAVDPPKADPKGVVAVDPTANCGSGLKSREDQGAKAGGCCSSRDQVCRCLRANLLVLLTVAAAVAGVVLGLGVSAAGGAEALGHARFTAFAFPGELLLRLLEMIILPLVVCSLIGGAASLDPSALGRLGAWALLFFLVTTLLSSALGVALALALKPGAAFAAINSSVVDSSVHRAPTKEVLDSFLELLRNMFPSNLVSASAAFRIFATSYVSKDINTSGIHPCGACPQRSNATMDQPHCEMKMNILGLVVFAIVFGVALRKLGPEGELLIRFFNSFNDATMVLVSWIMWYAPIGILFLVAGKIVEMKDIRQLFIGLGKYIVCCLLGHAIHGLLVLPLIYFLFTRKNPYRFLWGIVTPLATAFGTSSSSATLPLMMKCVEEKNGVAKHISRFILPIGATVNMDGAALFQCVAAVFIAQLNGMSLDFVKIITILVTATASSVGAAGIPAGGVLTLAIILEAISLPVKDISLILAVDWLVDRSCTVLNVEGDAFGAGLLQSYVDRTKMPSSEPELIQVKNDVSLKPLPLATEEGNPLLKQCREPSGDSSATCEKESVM

hASCT1 = molecular target: T3, hASCT1 (Homo sapiens, UniProt P43007); experiment: Electrophysiology (whole-cell current recording) of transfected HEK293 cells, hASCT1
T3 construct: expressed in transfected cells; host or cells: HEK293 (ATCC CRL-11268), transient transfection
T3 sequence (P43007 1-532): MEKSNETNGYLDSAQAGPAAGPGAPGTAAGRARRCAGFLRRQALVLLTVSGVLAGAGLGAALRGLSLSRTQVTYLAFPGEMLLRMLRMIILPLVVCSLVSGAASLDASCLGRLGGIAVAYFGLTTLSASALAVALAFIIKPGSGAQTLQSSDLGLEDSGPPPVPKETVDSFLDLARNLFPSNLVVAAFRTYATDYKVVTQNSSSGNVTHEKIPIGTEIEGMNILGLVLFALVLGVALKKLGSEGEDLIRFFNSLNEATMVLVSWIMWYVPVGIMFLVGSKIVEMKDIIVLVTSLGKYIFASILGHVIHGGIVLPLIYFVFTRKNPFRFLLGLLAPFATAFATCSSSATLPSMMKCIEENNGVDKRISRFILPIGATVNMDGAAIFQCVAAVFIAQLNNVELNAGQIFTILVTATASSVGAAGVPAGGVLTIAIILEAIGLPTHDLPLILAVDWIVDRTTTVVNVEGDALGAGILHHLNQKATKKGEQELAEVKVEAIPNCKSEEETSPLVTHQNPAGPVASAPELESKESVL
Description: (§1) Human embryonic kidney 293 (HEK293, ATCC CRL-11268) cells were cultured in DMEM media supplemented with 10% (v v) fetal bovine serum (FBS), 2 mM glutamine, 1% penicillin streptomycin solution, 1 mM sodium pyruvate and non-essential amino acids. Cells were maintained at 37° C. in a fully humidified atmosphere containing 5% CO2. rASCT2, hASCT2, hASCT1, EAAT1, EAAT2, EAAC1, EAAT5 and YFP complementary DNAs were each used to transiently transfect HEK293 using POLYPLUS Jet-prime transfection reagent. Cells were analyzed using electrophysiological techniques 24-40 hours after transfection.
(§2) Stock solutions of inhibitor was prepared in dimethyl sulfoxide (DMSO) up to 100 mM. Dilutions to working concentrations were made using external buffer. […] For rASCT2, hASCT2 and hASCT1, external buffer contained 140 mM NaCl, 2 mM MgCl2, 2 mM CaCl2), and 10 mM HEPES, pH 7.40 while internal pipette solution comprised of 130 mM NaSCN, 2 mM MgCl2, 10 mM EGTA, 10 mM HEPES and 10 mM alanine, pH 7.40. For specificity experiments with EAAT1, EAAT2, EAAC1 and EAAT5, internal solution contained 10 mM glutamate instead of alanine. Compounds were applied to HEK293 cells expressing DNA of interest suspended from a current recording electrode in whole cell configuration through a rapid solution exchange device. Cells are immersed in external buffer bath used to dissolve the inhibitors. The open pipette resistance was between 3 and 6 MΩ. Series resistance was not compensated in these experiments due to relatively small currents. Currents traces were recorded using an Adams and List EPC7 amplifier and digitized using a Molecular Devices Digidata A/D converter.
(§3) Linear and nonlinear curve fitting of the experimental data were analyzed using MicroCal Origin software. Nonlinear dose-response relationships were fitted with a Michaelis-Menten-like equation to obtain apparent Ki values in the absence of substrate (see TABLE 2 for Ki values). The figures show representative current traces and dose-response curves for hACST2 and rASCT2, used to obtain Ki values in TABLE 2 for compound SN 40. At least four experiments were performed with at least three different cells. Error bars in all graphs, e.g., in FIG. 1B and FIG. 1C and tables (Ki values) represent mean±SD.

hASCT2 [3] = molecular target: T1, hASCT2; experiment: Electrophysiology (whole-cell current recording) of transfected HEK293 cells, hASCT2
Description: as §1, §2, §3

rASCT2 [4] = molecular target: T2, rASCT2; experiment: Electrophysiology (whole-cell current recording) of transfected HEK293 cells, rASCT2
Description: as §1, §2, §3

EAAT5 = molecular target: T4, EAAT5 (Homo sapiens, UniProt O00341); experiment: Electrophysiology specificity experiment in transfected HEK293 cells, EAAT5; conditions: apparent Ki, HEK293, internal solution 10 mM glutamate, mean ± SD
T4 construct: expressed in transfected cells; host or cells: HEK293 (ATCC CRL-11268), transient transfection
Description: as §1, §2, §3

EAAT1 = molecular target: T5, EAAT1 (Homo sapiens, UniProt P43003); experiment: Electrophysiology specificity experiment in transfected HEK293 cells, EAAT1; conditions: apparent Ki, HEK293, internal solution 10 mM glutamate, mean ± SD
T5 construct: expressed in transfected cells; host or cells: HEK293 (ATCC CRL-11268), transient transfection
Description: as §1, §2, §3

EAAC1 = molecular target: T6, EAAC1 (UniProt P51907); experiment: Electrophysiology specificity experiment in transfected HEK293 cells, EAAC1; conditions: apparent Ki, HEK293, internal solution 10 mM glutamate, mean ± SD
T6 construct: Ki EAAC1; other: apparent Ki, HEK293, internal solution 10 mM glutamate, mean ± SD
T6 sequence (P51907 1-523): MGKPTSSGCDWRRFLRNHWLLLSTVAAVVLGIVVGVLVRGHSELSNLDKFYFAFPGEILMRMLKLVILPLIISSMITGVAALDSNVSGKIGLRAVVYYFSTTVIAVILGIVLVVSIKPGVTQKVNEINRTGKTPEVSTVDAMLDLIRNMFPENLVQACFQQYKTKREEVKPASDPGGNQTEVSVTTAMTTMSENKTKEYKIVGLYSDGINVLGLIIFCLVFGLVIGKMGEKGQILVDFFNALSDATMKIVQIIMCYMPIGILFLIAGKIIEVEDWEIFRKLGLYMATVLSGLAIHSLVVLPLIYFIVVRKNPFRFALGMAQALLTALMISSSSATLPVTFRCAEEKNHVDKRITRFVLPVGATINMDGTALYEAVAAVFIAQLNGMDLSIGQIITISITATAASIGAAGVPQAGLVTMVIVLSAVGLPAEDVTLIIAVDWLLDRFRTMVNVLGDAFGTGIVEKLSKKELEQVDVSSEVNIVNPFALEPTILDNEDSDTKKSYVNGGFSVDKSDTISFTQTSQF
Description: Cells were maintained at 37° C. in a fully humidified atmosphere containing 5% CO2. rASCT2, hASCT2, hASCT1, EAAT1, EAAT2, EAAC1, EAAT5 and YFP complementary DNAs were each used to transiently transfect HEK293 using POLYPLUS Jet-prime transfection reagent. Cells were analyzed using electrophysiological techniques 24-40 hours after transfection.
as §2
as §3, with “The figures show representative current traces and dose-response curves for hACST2 and rASCT2, used to obtain Ki values in TABLE 2 for compound SN 40.” left out

EAAT2 = molecular target: T7, EAAT2 (Homo sapiens, UniProt P43004); experiment: Electrophysiology specificity experiment in transfected HEK293 cells, EAAT2; conditions: apparent Ki, HEK293, internal solution 10 mM glutamate, mean ± SD; read-out: Ki EAAT2
T7 construct: expressed in transfected cells; host or cells: HEK293 (ATCC CRL-11268), transient transfection
Description: as §1, §2, §3

[5] = Table 3, dihydroxyproline derivatives, read-out: Ki All DNA: hASCT2
[6] = Table 3, dihydroxyproline derivatives, read-out: Ki All DNA: rASCT2
[7] = apparent Ki in the absence of substrate, HEK293, mean ± SD, read-out: Ki hASCT2
[8] = apparent Ki in the absence of substrate, HEK293, mean ± SD, read-out: Ki rASCT2

T5 sequence (P43003 whole entry, species assumed): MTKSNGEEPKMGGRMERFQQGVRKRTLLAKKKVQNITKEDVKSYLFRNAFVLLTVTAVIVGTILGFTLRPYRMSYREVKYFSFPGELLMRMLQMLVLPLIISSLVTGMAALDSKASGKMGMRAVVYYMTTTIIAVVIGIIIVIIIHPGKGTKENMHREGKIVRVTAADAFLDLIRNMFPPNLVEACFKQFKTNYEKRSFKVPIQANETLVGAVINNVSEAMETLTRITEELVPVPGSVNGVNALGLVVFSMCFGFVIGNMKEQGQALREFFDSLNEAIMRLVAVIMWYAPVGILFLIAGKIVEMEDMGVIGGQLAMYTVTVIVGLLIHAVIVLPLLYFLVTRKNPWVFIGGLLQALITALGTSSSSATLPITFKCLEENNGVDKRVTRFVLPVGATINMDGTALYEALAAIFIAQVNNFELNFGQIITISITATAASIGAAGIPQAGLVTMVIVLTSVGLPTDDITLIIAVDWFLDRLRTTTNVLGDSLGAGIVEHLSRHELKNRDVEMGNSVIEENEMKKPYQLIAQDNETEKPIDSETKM
T4 sequence (O00341 whole entry, species assumed): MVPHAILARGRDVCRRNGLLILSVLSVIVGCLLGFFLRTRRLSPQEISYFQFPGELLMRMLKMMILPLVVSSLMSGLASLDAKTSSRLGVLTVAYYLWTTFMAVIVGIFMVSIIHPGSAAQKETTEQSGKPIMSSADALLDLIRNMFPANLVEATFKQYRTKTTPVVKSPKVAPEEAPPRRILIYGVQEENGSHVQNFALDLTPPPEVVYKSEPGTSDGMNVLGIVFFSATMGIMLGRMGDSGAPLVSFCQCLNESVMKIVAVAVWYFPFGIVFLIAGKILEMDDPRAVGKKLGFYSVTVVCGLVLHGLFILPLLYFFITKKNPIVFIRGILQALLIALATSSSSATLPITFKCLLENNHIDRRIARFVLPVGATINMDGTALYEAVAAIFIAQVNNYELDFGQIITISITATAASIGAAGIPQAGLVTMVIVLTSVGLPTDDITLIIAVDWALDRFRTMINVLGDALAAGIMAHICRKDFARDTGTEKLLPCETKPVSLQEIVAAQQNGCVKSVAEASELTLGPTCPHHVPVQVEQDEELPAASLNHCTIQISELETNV
T7 sequence (P43004 whole entry, species assumed): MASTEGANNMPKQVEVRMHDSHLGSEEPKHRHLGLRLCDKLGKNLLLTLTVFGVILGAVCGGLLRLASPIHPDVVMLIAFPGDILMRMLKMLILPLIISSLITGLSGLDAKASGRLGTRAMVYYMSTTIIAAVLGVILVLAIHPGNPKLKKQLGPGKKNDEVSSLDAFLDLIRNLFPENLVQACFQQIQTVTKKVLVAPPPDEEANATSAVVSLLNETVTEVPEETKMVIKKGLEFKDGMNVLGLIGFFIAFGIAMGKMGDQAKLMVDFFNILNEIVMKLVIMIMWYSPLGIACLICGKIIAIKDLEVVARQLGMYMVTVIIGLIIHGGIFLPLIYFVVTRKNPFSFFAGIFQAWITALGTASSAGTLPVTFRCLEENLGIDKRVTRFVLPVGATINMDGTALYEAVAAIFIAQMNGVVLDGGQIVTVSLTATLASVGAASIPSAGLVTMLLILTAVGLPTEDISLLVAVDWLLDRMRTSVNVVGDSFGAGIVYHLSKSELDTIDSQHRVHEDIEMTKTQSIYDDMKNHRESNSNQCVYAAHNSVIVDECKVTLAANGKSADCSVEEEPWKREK

Row | Structure (SMILES) | Ki (hASCT2 [3]; [5]) [nM] | Ki (rASCT2 [4]; [6]) [µM] | Ki (EAAT5) [µM] | Ki (EAAT1) [nM] | Ki (hASCT2 [3]; [7]) [nM] | Ki (rASCT2 [4]; [8]) [µM] | Ki (EAAC1) [µM] | also measured
1 | O=C(Nc1cccc(C(=O)O[C@@H]2CN[C@H](C(=O)O)C2)c1)c1ccccc1 [SN 16] |  |  | 566 ± 188 | 49400 ± 9700 | 390 ± 100 | 0.11 ± 0.04 |  | Ki (hASCT1; apparent Ki in the absence of substrate, HEK293, mean ± SD, read-out: Ki hASCT1): 10.1 ± 0.6 µM
2 | O=C(O)[C@H]1NC[C@@H](NCc2ccc(-c3ccccc3)cc2)[C@@H]1O [SN 50] |  |  |  | 2710 ± 700 | 1610 ± 200 | 1.34 ± 0.1 | 20.1 ± 6.2 | 
3 | O=C(O)[C@@H]1C[C@H](NCc2ccc(-c3ccccc3)cc2)CN1 [SN 40] |  |  | 5.55 ± 0.7 | 2940 ± 400 | 2420 ± 100 | 7.29 ± 1.8 | 24.4 ± 2.5 | Ki (EAAT2): 5.55 ± 1.7 µM

Continued, in another order:

Row | Ki (hASCT2 [3]; [5]) [nM] | Ki (rASCT2 [4]; [6]) [µM] | Ki (EAAT5) [µM] | Ki (EAAT1) [nM] | Ki (hASCT2 [3]; [7]) [nM] | Ki (rASCT2 [4]; [8]) [µM] | Ki (EAAC1) [µM] | Structure (SMILES) | also measured
4 | 30500 | 25.8 |  |  |  |  |  | O=C(OC[C@]1(O)CN[C@H](C(=O)O)C1)c1ccc(-c2ccccc2)cc1 [SN65] | Competition Expt % block (given as a decimal): hASCT2 (hASCT2 [1]; 0.5 mM ala, decimal fraction): 0.8; Ki (hASCT2 [1]; 0.5 mM ala): 52.2 µM; Competition Expt % block (given as a decimal): rASCT2 (rASCT2 [2]; 0.5 mM ala, decimal fraction): 0.4; Ki (rASCT2 [2]; 0.5 mM ala): 170 µM; Ki (hASCT1; Table 3, dihydroxyproline derivatives, read-out: Ki All DNA: hASCT1): 59.2 µM
5 | 15500 | 27.6 |  |  |  |  |  | O=C(OC[C@]1(O)CN[C@H](C(=O)O)C1)c1ccc(-c2ccc(F)cc2)cc1 [SN66] | Ki (hASCT2 [1]; 1 mM ala): 28 µM; Ki (rASCT2 [2]; 1 mM ala): 49 µM
